Reference: US9622997B2, “Methods for treating insomnia” (Lynn Health Science Institute, Inc., priority 2012, dated 2017)

Columns and labels:
[1] = baclofen vs. placebo; cited from earlier work
[2] = tested on: individuals with complaints of nighttime heartburn or regurgitation; test: Cross-over trial with esophageal pH monitoring combined with overnight PSG after reflux-provoking meal; assay type: in vivo, human
From the text: Individuals aged 18-65 (inclusive) with complaints of nighttime heartburn or regurgitation at least twice per week and a Carlsson GERD score of at least 5 were invited to participate. […] Participants were also excluded if they took sedating medications on a regular basis (PRN use was allowed if they agreed to abstain from use on the nights in the sleep laboratory). Participants were recruited from a database of patients with heartburn complaints. These participants had previously expressed interest in participating in medical research studies at our facility. Advertising was not utilized in recruitment.
Esophageal pH monitoring was performed using an antimony pH catheter (Sandhill Scientific, Highlands Ranch, Colo., USA) placed in the distal esophagus. The catheter was inserted into the esophagus via the nares and positioned so that the pH electrode was 5 cm above the manometrically determined LES. Prior to insertion the pH electrode was calibrated against solutions of pH 4 and 7. The catheter was connected to an acid reflux monitor, which allowed continuous recordings of esophageal pH for a 24-hour period as well as simultaneous pH monitoring during PSG (ZepHr, Sandhill Scientific).
Data were analyzed using BioVIEW Analysis software (Sandhill Scientific). This software provides a report of upright, supine, and total acid contact time (ACT), which were used as outcome measures in the study.
Overnight polysomnography included monitoring of electroencephalography, electroocculography, submental electromyography, airflow (thermistor), electrocardiogram and SaO2. Distal and proximal pH was also recorded via the polysomnography system. […] “Lights Out” occurred at the patient's usual bedtime. Time in bed was standardized to 8 hours. For the purposes of this study, significant sleep apnea was defined as an apnea hypopnea index (AHI) of at least 10 events per hour of sleep. Individuals with an AHI of 10 or greater on the first sleep study were excluded from the study. Likewise, individuals with a periodic limb movement arousal index (PLMAI) of 10 or greater were excluded.
A reflux event was defined as a period of at least 30 consecutive seconds with pH readings below 4. A reflux event ended when the pH rose to 4 or greater for a period of at least 30 seconds. Reflux events were only counted if they occurred after PSG documented sleep onset had occurred. These analyses were done by hand in order to determine which events occurred during sleep and which occurred during wake. […]
The second and third visits were scheduled one to two weeks after the initial visit, and were separated by a washout period of approximately one week. […] The order of medication was determined by a computer-generated list of random sequences. […]

[3] = tested on: healthy subjects subjected to a transient insomnia protocol; test: Next day residual effects (DSST, SCT, VAS) and adverse events after PSG night; assay type: in vivo, human
Protocol: Next day residual effects were assessed by a comparing pre- and post-PSG Digit Symbol Substitution Test (DSST; 90-s duration) and Symbol Copying Test (SCT; 90-s duration). Hangover effect of baclofen 20 mg was assessed by comparing a Visual Analog Scale (VAS) for sleepiness administered the morning after each PSG. DSST and SCT were administered prior to study medication provided 90 minutes before Lights Out. DSST, SCT, and VAS were conducted 30 minutes after Lights On in the order given. Subjects were contacted between 24-48 hours after each PSG to assess any side-effects or adverse events.
The primary outcome variables were WASO, TST, and SE. Secondary outcome variables were SOL, sTST, sSOL, and sNAS. Exploratory variables to assess residual effects were cognitive and visual analog test scores (DSST, SCT, and VAS). Objective PSG measures such as the percent of time in each sleep stage, subjective self-reports, and residual effects were analyzed using SPSS 11.0 (SPSS Inc., Chicago, Ill., USA). Paired samples t-tests were used to compare means between treatment groups for normally distributed dependent measures. Wilcoxon signed-rank tests were used to compare the medians between treatment groups for non-normally distributed dependent measures. Sample size determination was made based on previous findings in our laboratory from a study of the effect of baclofen in patients with nighttime reflux.

normal participants = settings: acute dose 40 mg; cited from earlier work
[4] = baclofen 20 mg vs placebo, next day residual effects, 30 minutes after Lights On

In the case of `NCC(CC(=O)O)c1ccc(Cl)cc1` (centres unmarked) [Baclofen, 4-amino-3-(4-chlorophenyl)-butanoic acid], the “decrease in reflux events in other studies” value [1] is listed as roughly 40%, the adverse events ([2]; baclofen 40 mg) is listed as “No adverse events were documented” and the “reduction in number of distal reflux events occurring after PSG-determined sleep onset compared to placebo” value ([2]; baclofen 40 mg 90 minutes before bed, n=21, p<0.05) is listed as 56%. The “reflux events associated with wakefulness and with sleep, compared to placebo” value ([2]; baclofen 40 mg, FIG. 1C) was “reduced reflux events”, the “decrease in recumbent ACT (acid contact time) versus placebo” value ([2]; baclofen 40 mg, not statistically significant) was “approximately 50%” and the “residual sleepiness testing, Visual Analog Scale (VAS)” value ([3]; baclofen 20 mg vs placebo, morning after each PSG) was “no significant differences between treatment conditions”. The “cognitive testing, Digit Symbol Substitution Test (DSST)” value [3, 4] was “no significant differences between treatment conditions”, the “cognitive testing, Symbol Copying Test (SCT)” value [3, 4] was “no significant differences between treatment conditions” and the serious adverse events ([3]; baclofen 20 mg, contacted 24-48 hours after each PSG) was “No serious adverse events were reported”. The ACT (normal participants) was “no significant change” and the postprandial reflux events (normal participants) was “significant reduction”.
